From PubChem BioAssay (NCI)
“And” between values parts separate entries of the source, which are not always exact repeats. Identical values can stand only once.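 These data come from cells grown in 96-well plates and exposed to compound for 48 hours at five concentrations. The concentration for 50% growth inhibition is given as GI50. TGI denotes the concentration required for complete inhibition of growth.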

These molecules were tested on NCI-H460 lung (assay: NCI tumour cell line growth inhibition, 48 h).

SMILES | TGI
CC(CO)(CO)N1C(=O)C2C3C=CC(C3)C2C1=O (stereo unspecified) | > 100 µM
CC1c2c(Cl)nc3ccccc3c2Oc2c1c(Cl)nc1ccccc21 | > 100 µM
COC1(OC)C(N(C)C)=C(Cl)C(=O)/C1=C/C=O | > 100 µM
N#Cc1c2ccccc2cn1-c1ccc(F)cc1 | > 100 µM
Cc1ccccc1N1C(=O)C2C=CC(n3[nH]c(=O)n(Cc4ccccc4)c3=O)CC2C1=O (stereo unspecified) | > 100 µM
CSc1ncnc2c1ncn2CCC(=O)OC(C)(C)C | > 100 µM
CN(CC(=O)O)c1ncc2c(n1)CCCC2 | > 100 µM
Oc1[nH]c2ccccc2c1N=NC(=S)Nc1cccc(Cl)c1 | 65.2 µM
O=C(Nc1nc(C23CC4CC(CC(C4)C2)C3)cs1)c1cc2ccc(O)cc2oc1=O | 52.7 µM
S=c1sc2c(Cl)nc(Cl)nc2n1-c1ccccc1 | > 100 µM
Cn1ccc(C(=O)NCCN(CCNC(=O)c2ccn(C)c(=O)c2O)CCNC(=O)c2cccc(=O)n2O)c(O)c1=O | > 100 µM
COc1ccc(P2(=S)OC(C)(C)C(C)(C)O2)cc1 | > 100 µM
O=C(O)[C@@H]1CCS(=O)(=O)N1 | > 100 µM
CC(C)(C)OC(=O)[C@H]1CCC(=S)N1Cc1ccccc1 | > 100 µM
COc1ccc(S(=O)(=O)c2nnc(S(=O)(=O)Cc3ccccc3)s2)cc1 | 38.1 µM
NC(=O)C12CC3CC(CC(F)(C3)C1)C2 | > 100 µM
CC1CCC(=O)C(C(=O)CC2CC(=O)N(C)C(=O)C2)C1 (stereo unspecified) | > 100 µM
CC(=O)Oc1c2c(c(O)c3ccccc13)C(n1cnc3c(ncn3C3OC(CO)C4OC(C)(C)OC43)c1=N)CCC2 (stereo unspecified) | 62.4 µM
CN(C)CCC(=O)c1ccccc1 | > 73.5 µM
CCOc1ccccc1NC(=O)C(=O)CC(=O)c1sc(Nc2nnc(-c3ccc(Cl)c(Cl)c3)o2)nc1C | > 100 µM

These molecules were tested on HT29 colon (assay: NCI tumour cell line growth inhibition, 48 h).

SMILES | TGI
O=c1cc(-c2cccc3ccccc23)[nH]c2ncccc12 | 0.0608 µM
CN1CCOC(c2ccccc2)O1 (stereo unspecified) | > 100 µM
CCCNC(=S)NNC(=O)CSc1nc(-c2ccccc2)c(-c2ccccc2)[nH]1 | > 100 µM
CC(=O)c1sc(Nc2nnc(-c3ccc(-c4nnc(Nc5nc(C)c(C(C)=O)s5)o4)cc3)o2)nc1C | > 100 µM
CC(CO)(CO)N1C(=O)C2C3C=CC(C3)C2C1=O (stereo unspecified) | > 100 µM
CC1c2c(Cl)nc3ccccc3c2Oc2c1c(Cl)nc1ccccc21 | > 100 µM
COC1(OC)C(N(C)C)=C(Cl)C(=O)/C1=C/C=O | > 100 µM
CC(=O)Oc1ccc2c(C)cc(=O)oc2c1OC(C)=O | > 100 µM
N#Cc1c2ccccc2cn1-c1ccc(F)cc1 | > 100 µM
Cc1ccccc1N1C(=O)C2C=CC(n3[nH]c(=O)n(Cc4ccccc4)c3=O)CC2C1=O (stereo unspecified) | > 100 µM
CSc1ncnc2c1ncn2CCC(=O)OC(C)(C)C | > 100 µM
CN(CC(=O)O)c1ncc2c(n1)CCCC2 | > 100 µM
Oc1[nH]c2ccccc2c1N=NC(=S)Nc1cccc(Cl)c1 | 28.4 µM
COc1ccc(/C=C2\N=C(SC)N(CN3CCOCC3)C2=O)cc1 | > 100 µM
O=C(Nc1nc(C23CC4CC(CC(C4)C2)C3)cs1)c1cc2ccc(O)cc2oc1=O | 27.4 µM
S=c1sc2c(Cl)nc(Cl)nc2n1-c1ccccc1 | > 100 µM
Cn1ccc(C(=O)NCCN(CCNC(=O)c2ccn(C)c(=O)c2O)CCNC(=O)c2cccc(=O)n2O)c(O)c1=O | > 100 µM
COc1ccc(P2(=S)OC(C)(C)C(C)(C)O2)cc1 | > 100 µM
O=C(O)[C@@H]1CCS(=O)(=O)N1 | > 100 µM
COc1ccc(S(=O)(=O)c2nnc(S(=O)(=O)Cc3ccccc3)s2)cc1 | 43.8 µM
NC(=O)C12CC3CC(CC(F)(C3)C1)C2 | > 100 µM
CC1CCC(=O)C(C(=O)CC2CC(=O)N(C)C(=O)C2)C1 (stereo unspecified) | > 100 µM
COc1ccc(-[n+]2nc(S(=O)(=O)O)c(/C=C/c3ccc(N(C)C)cc3)cc2C#N)cc1 | > 100 µM
CC(=O)Oc1c2c(c(O)c3ccccc13)C(n1cnc3c(ncn3C3OC(CO)C4OC(C)(C)OC43)c1=N)CCC2 (stereo unspecified) | 29.2 µM
CN(C)CCC(=O)c1ccccc1 | > 67.3 µM
CCOc1ccccc1NC(=O)C(=O)CC(=O)c1sc(Nc2nnc(-c3ccc(Cl)c(Cl)c3)o2)nc1C | > 100 µM

What follows are molecules tested on OVCAR-8 ovarian (assay: NCI tumour cell line growth inhibition, 48 h).

SMILES | GI50 | TGI
O=c1cc(-c2cccc3ccccc23)[nH]c2ncccc12 | 0.0338 µM | 0.889 µM and 0.453 µM
CN1CCOC(c2ccccc2)O1 (stereo unspecified) |  | > 100 µM
CCCNC(=S)NNC(=O)CSc1nc(-c2ccccc2)c(-c2ccccc2)[nH]1 |  | > 100 µM
CC(=O)c1sc(Nc2nnc(-c3ccc(-c4nnc(Nc5nc(C)c(C(C)=O)s5)o4)cc3)o2)nc1C |  | > 100 µM
CC(CO)(CO)N1C(=O)C2C3C=CC(C3)C2C1=O (stereo unspecified) |  | > 100 µM
CC1c2c(Cl)nc3ccccc3c2Oc2c1c(Cl)nc1ccccc21 |  | > 100 µM
COC1(OC)C(N(C)C)=C(Cl)C(=O)/C1=C/C=O |  | > 100 µM
CC(=O)Oc1ccc2c(C)cc(=O)oc2c1OC(C)=O |  | > 100 µM
Cc1ccccc1N1C(=O)C2C=CC(n3[nH]c(=O)n(Cc4ccccc4)c3=O)CC2C1=O (stereo unspecified) |  | > 100 µM
CSc1ncnc2c1ncn2CCC(=O)OC(C)(C)C |  | > 100 µM
CN(CC(=O)O)c1ncc2c(n1)CCCC2 |  | > 100 µM
Oc1[nH]c2ccccc2c1N=NC(=S)Nc1cccc(Cl)c1 |  | 35.7 µM
COc1ccc(/C=C2\N=C(SC)N(CN3CCOCC3)C2=O)cc1 |  | > 100 µM
O=C(Nc1nc(C23CC4CC(CC(C4)C2)C3)cs1)c1cc2ccc(O)cc2oc1=O |  | 90.9 µM
S=c1sc2c(Cl)nc(Cl)nc2n1-c1ccccc1 |  | > 100 µM
Cn1ccc(C(=O)NCCN(CCNC(=O)c2ccn(C)c(=O)c2O)CCNC(=O)c2cccc(=O)n2O)c(O)c1=O |  | > 100 µM
COc1ccc(P2(=S)OC(C)(C)C(C)(C)O2)cc1 |  | > 100 µM
O=C(O)[C@@H]1CCS(=O)(=O)N1 |  | > 100 µM
CC(C)(C)OC(=O)[C@H]1CCC(=S)N1Cc1ccccc1 |  | > 100 µM
COc1ccc(S(=O)(=O)c2nnc(S(=O)(=O)Cc3ccccc3)s2)cc1 |  | 49.4 µM
NC(=O)C12CC3CC(CC(F)(C3)C1)C2 |  | > 100 µM
CC1CCC(=O)C(C(=O)CC2CC(=O)N(C)C(=O)C2)C1 (stereo unspecified) |  | > 100 µM
COc1ccc(-[n+]2nc(S(=O)(=O)O)c(/C=C/c3ccc(N(C)C)cc3)cc2C#N)cc1 |  | > 100 µM
CC(=O)Oc1c2c(c(O)c3ccccc13)C(n1cnc3c(ncn3C3OC(CO)C4OC(C)(C)OC43)c1=N)CCC2 (stereo unspecified) |  | 23.9 µM
CN(C)CCC(=O)c1ccccc1 |  | > 71.9 µM
CCOc1ccccc1NC(=O)C(=O)CC(=O)c1sc(Nc2nnc(-c3ccc(Cl)c(Cl)c3)o2)nc1C |  | > 100 µM

Each molecule was assayed on U251 CNS (assay: NCI tumour cell line growth inhibition, 48 h).

SMILES | GI50 | TGI
O=c1cc(-c2cccc3ccccc23)[nH]c2ncccc12 | 0.0103 µM | > 100 µM
CN1CCOC(c2ccccc2)O1 (stereo unspecified) |  | > 100 µM
CCCNC(=S)NNC(=O)CSc1nc(-c2ccccc2)c(-c2ccccc2)[nH]1 |  | > 100 µM
CC(=O)c1sc(Nc2nnc(-c3ccc(-c4nnc(Nc5nc(C)c(C(C)=O)s5)o4)cc3)o2)nc1C |  | > 100 µM
CC(CO)(CO)N1C(=O)C2C3C=CC(C3)C2C1=O (stereo unspecified) |  | > 100 µM
CC1c2c(Cl)nc3ccccc3c2Oc2c1c(Cl)nc1ccccc21 |  | > 100 µM
COC1(OC)C(N(C)C)=C(Cl)C(=O)/C1=C/C=O |  | > 100 µM
CC(=O)Oc1ccc2c(C)cc(=O)oc2c1OC(C)=O |  | > 100 µM
N#Cc1c2ccccc2cn1-c1ccc(F)cc1 |  | > 100 µM
Cc1ccccc1N1C(=O)C2C=CC(n3[nH]c(=O)n(Cc4ccccc4)c3=O)CC2C1=O (stereo unspecified) |  | > 100 µM
CN(CC(=O)O)c1ncc2c(n1)CCCC2 |  | > 100 µM
Oc1[nH]c2ccccc2c1N=NC(=S)Nc1cccc(Cl)c1 |  | 89.1 µM
